# US20150352108A1, “AMINO-PYRIMIDINE COMPOUNDS AS INHIBITORS OF TBK1 AND/OR IKK EPSILON” (Alzheimer's Institute of America, priority 2009, published 2015)
# Read-outs that look alike come from different tables or passages of the source.
# Experiments:
# IKKε = target: T1, IKKε (Homo sapiens, UniProt Q14164); experiment: In-vitro IKKε kinase assay ([γ33]ATP filter-plate); assay type: biochemical
# T1 construct: His-tag; made in house; host or cells: Sf9 insect cells
# T1 sequence (Q14164 1-716): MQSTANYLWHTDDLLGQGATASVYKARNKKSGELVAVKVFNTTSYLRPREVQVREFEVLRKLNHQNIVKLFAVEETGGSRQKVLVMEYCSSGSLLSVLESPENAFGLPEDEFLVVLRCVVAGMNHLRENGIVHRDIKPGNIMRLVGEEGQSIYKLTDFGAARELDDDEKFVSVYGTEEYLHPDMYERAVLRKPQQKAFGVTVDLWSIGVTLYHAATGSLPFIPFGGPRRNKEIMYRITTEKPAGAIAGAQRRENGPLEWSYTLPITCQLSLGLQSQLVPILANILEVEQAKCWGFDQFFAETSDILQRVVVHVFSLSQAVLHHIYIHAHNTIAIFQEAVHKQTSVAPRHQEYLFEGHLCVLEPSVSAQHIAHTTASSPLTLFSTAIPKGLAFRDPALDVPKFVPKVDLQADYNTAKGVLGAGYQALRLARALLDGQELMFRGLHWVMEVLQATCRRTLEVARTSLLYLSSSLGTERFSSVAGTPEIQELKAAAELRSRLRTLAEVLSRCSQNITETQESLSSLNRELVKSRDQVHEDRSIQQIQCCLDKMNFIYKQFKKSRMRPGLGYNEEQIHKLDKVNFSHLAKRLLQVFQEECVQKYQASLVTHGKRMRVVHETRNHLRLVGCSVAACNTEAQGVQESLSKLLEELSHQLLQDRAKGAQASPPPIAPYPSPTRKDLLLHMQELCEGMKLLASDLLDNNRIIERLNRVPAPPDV
# Procedure, shortened: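 His-tagged Sf9-expressed kinases at 0.1 or 0.02 μg/ml (TBK1) and 0.1 or 0.015 μg/ml (IKKε) for normal and sensitized formats, with myelin basic protein or casein substrate. ATP was at 2×Km (60 μM TBK1, 32 μM IKKε) plus 0.3 μCi [γ33]ATP. Reactions ran 30-45 min, were captured on P-81 filters, and counts were normalized to DMSO.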
# TBK1 = target: T2, TBK1 (Homo sapiens, UniProt Q9UHD2); experiment: In-vitro TBK1 kinase assay ([γ33]ATP filter-plate); assay type: biochemical
# T2 construct: His-tag; made in house; host or cells: Sf9 insect cells
# T2 sequence (Q9UHD2 1-729): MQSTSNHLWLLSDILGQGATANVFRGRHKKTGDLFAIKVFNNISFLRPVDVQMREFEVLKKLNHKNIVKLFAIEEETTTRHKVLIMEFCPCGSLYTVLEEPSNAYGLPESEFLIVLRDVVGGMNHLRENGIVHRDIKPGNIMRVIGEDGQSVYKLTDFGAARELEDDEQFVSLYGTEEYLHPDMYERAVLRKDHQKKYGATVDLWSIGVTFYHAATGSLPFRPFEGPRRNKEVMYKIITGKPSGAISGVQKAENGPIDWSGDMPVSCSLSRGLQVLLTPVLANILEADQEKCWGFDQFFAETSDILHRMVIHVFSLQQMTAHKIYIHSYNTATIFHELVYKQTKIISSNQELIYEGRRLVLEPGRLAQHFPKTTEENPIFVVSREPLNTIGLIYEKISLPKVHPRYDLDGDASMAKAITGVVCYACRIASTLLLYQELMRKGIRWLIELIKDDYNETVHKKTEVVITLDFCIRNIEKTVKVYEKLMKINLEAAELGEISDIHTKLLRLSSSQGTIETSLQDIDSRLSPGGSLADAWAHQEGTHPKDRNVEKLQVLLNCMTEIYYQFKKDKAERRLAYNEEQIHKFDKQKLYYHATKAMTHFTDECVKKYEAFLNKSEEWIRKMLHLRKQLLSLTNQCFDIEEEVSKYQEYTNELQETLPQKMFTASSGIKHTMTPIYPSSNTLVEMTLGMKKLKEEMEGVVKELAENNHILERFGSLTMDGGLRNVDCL
# Method: IKKε enzyme was produced as a His-tag fusion in Sf9 cells and used at a final concentration of […]. TBK1 enzyme was produced as a His-tag fusion in Sf9 cells and used at a final concentration of 0.1 μg/ml. Kinase reactions were carried out in reaction buffer using myelin basic protein (Millipore, Ballerica, Mass.) or casein (Sigma, St. Louis, Mo.) as substrate at an ATP concentration equal to twice the Km,ATP value for each enzyme, corresponding to 32 μM ATP for IKKε and 60 μM ATP for TBK1, in the presence of 0.3 μCi [γ^33]ATP (PerkinElmer, Waltham, Mass.). Final enzyme concentrations were 0.1 or 0.015 μg/ml (IKKε) and 0.1 or 0.02 μg/ml (TBK1), representing “normal” and “sensitized” assay conditions respectively. Test compounds (or DMSO solvent as a control) were added prior to initiation of the reactions. Reactions were terminated after 30-45 minutes by adding 3% phosphoric acid. Terminated reactions were transferred to P-81 cellulose phosphate filterplates (Whatman, Inc., Piscataway, N.J.) and washed with 1% phosphoric acid on a vacuum apparatus. After air drying, scintillant (PerkinElmer, Waltham, Mass.) was added and the plates were read on a PerkinElmer TopCount NXT instrument. Counts were normalized to DMSO controls after background subtraction.
# [1] = text bins, read-out: IC50 for inhibition of the kinase activity of IKKε
# [2] = text bins, read-out: IC50 for inhibition of the kinase activity of TBK1
Compound,IC50 (IKKε; [1]) [nM],IC50 (TBK1; [2]) [nM],"IC50 (IKKε; Table 3, read-out: IKKε IC50) [nM]","IC50 (TBK1; Table 3, read-out: TBK1 IC50) [nM]"
"COc1cc(Nc2nccc(-c3ccc(OC4CCN(C(=O)[C@H](C)O)CC4)c(C#N)c3)n2)ccc1OCCOCCN [Example 105, 5-[2-({4-[2-(2-aminoethoxy)ethoxy]-3-methoxyphenyl}amino)pyrimidin-4-yl]-2-({1-[(2S)-2-hydroxypropanoyl]piperidin-4-yl}oxy)benzonitrile]",5 to 50,10 to 100,–,–
"COCC(=O)Nc1cc(Nc2nccc(-c3ccc(OC)c(C#N)c3)n2)cc(OC)c1 [Example 278, N-(3-{[4-(3-Cyano-4-methoxyphenyl)pyrimidin-2-yl]amino}-5-methoxyphenyl)-2-methoxyacetamide]",5 to 50,10 to 100,–,–
"COc1cc(Nc2nccc(-c3ccc(OC4CCOCC4)c(C#N)c3)n2)ccc1S(=O)(=O)NCCCO [Example 155, 4-({4-[3-cyano-4-(tetrahydro-2H-pyran-4-yloxy)phenyl]pyrimidin-2-yl}amino)-N-(3-hydroxypropyl)-2-methoxybenzene-sulfonamide]",< 5,< 10,–,–
"COc1cc(Nc2nccc(-c3ccc(OC4CCN(S(C)(=O)=O)CC4)c(C#N)c3)n2)ccc1N1CCOCC1 [Example 79, 5-(2-{[3-methoxy-4-(morpholin-4-yl)phenyl]amino}pyrimidin-4-yl)-2-{[1-(methylsulfonyl)piperidin-4-yl]oxy}benzonitrile]",5 to 50,10 to 100,–,–
"N#Cc1cc(-c2ccnc(Nc3ccc(CNC(=O)c4cnc(N)s4)cc3)n2)ccc1OC1CCOCC1 [compound 490, 2-amino-N-[4-({4-[3-cyano-4-(tetrahydro-2H-pyran-4-yloxy)phenyl]pyrimidin-2-yl}amino)benzyl]-1,3-thiazole-5-carboxamide]",< 5,< 10,1.4,0.3
"N#Cc1cc(-c2ccnc(Nc3ccc(N4CCOCC4)cc3)n2)ccc1NC(=O)C1C[C@@H]1F (stereo partly drawn) [Example 216, (2S)-N-[2-cyano-4-(2-{[4-(morpholin-4-yl)phenyl]amino}pyrimidin-4-yl)phenyl]-2-fluorocyclopropane-carboxamide]",< 5,< 10,–,–
"COC1CN(c2cc(Nc3nccc(-c4ccc(OC5CCOCC5)c(C#N)c4)n3)ccc2C)C1 [compound 572, 5-(2-{[3-(3-Methoxyazetidin-1-yl)-4-methylphenyl]amino}pyrimidin-4-yl)-2-(tetrahydro-2H-pyran-4-yloxy)benzonitrile]",< 5,< 10,–,–
"COc1cc(Nc2nccc(-c3ccc(OC)c(C#N)c3)n2)cc(OC2CCN(C)CC2)c1 [Example 259, 2-Methoxy-5-[2-({3-methoxy-5-[(1-methylpiperidin-4-yl)oxy]phenyl}amino)pyrimidin-4-yl]benzonitrile]",5 to 50,10 to 100,–,–
"COc1cc(NC(=O)c2cccnc2)cc(Nc2nccc(-c3ccc(OC)c(C#N)c3)n2)c1 [compound 356, N-(3-{[4-(3-Cyano-4-methoxyphenyl)pyrimidin-2-yl]amino}-5-methoxyphenyl) pyridine-3-carboxamide]",5 to 50,10 to 100,–,–
"COC(=O)c1ccc(Nc2nccc(-c3ccc(OC4CCN(C(=O)[C@H](C)O)CC4)c(C#N)c3)n2)cc1OC [compound 324, methyl 4-({4-[3-cyano-4-({1-[(2S)-2-hydroxypropanoyl]piperidin-4-yl}oxy)phenyl]pyrimidin-2-yl}amino)-2-methoxybenzoate]",5 to 50,10 to 100,–,–
"N#Cc1cc(-c2ccnc(Nc3ccc(N4CCOCC4)cc3)n2)ccc1NC(=O)C1CC1 [Example 91, N-[2-cyano-4-(2-{[4-(morpholin-4-yl)phenyl]amino}pyrimidin-4-yl)phenyl] cyclopropane-carboxamide]",< 5,< 10,–,–
"COc1cc(Nc2nccc(-c3ccc(OC4CCOCC4)c(C#N)c3)n2)ccc1OCCOCCNS(=O)(=O)N(C)C [Example 26, N′-(2-{2-[4-({4-[3-cyano-4-(tetrahydro-2H-pyran-4-yloxy)phenyl]pyrimidin-2-yl}amino)-2-methoxyphenoxy]ethoxy}ethyl)-N,N-dimethylsulfuric diamide]",< 5,< 10,–,–
"N#Cc1cc(-c2ccnc(Nc3ccc(N4CCOCC4)cc3)n2)ccc1OC1CCN(C(=O)CO)CC1 [Example 190, 2-{[1-(Hydroxyacetyl)piperidin-4-yl]oxy}-5-(2-{[4-(morpholin-4-yl)phenyl]amino}pyrimidin-4-yl)benzonitrile]",< 5,< 10,0.4,0.3
"COc1cc(Nc2nccc(-c3ccc(OC4CCOCC4)c(C#N)c3)n2)ccc1OCCCS(=O)(=O)N1CCOCC1 [Example 28, 5-[2-({3-methoxy-4-[3-(morpholin-4-ylsulfonyl)propoxy]phenyl}amino)pyrimidin-4-yl]-2-(tetrahydro-2H-pyran-4-yloxy)benzonitrile]",< 5,< 10,–,–
"COc1ccc(-c2ccnc(Nc3cc(CN4CCNC(=O)C4)c(OC)c(OC)c3)n2)cc1C#N [Example 110, 5-[2-({3,4-Dimethoxy-5-[(3-oxopiperazin-1-yl)methyl]phenyl}amino)pyrimidin-4-yl]-2-methoxybenzonitrile]",5 to 50,< 10,–,–
"COc1cc(Nc2nccc(-c3ccc(OC(C)C)c(C#N)c3)n2)cc(OC)c1OC [Example 33, 2-(Propan-2-yloxy)-5-{2-[(3,4,5-trimethoxyphenyl)amino]pyrimidin-4-yl}benzonitrile]",< 5,< 10,–,–
"CN1CCN(c2ccc(Nc3nccc(-c4ccc(OC5CCN(C(=O)CO)C5)c(C#N)c4)n3)cc2)CC1 (stereo not drawn) [Example 254, 2-{[1-(hydroxyacetyl)pyrrolidin-3-yl]oxy}-5-(2-{[4-(4-methylpiperazin-1-yl)phenyl]amino}pyrimidin-4-yl)benzonitrile]",5 to 50,< 10,–,–
"COc1cc(Nc2nccc(-c3ccc(NC(=O)C4CC4)c(C#N)c3)n2)ccc1CN1CC(OC)C1 [compound 570, N-{2-Cyano-4-[2-({3-methoxy-4-[(3-methoxyazetidin-1-yl)methyl]phenyl}amino)pyrimidin-4-yl]phenyl} cyclopropane-carboxamide]",5 to 50,10 to 100,–,–
"COc1cc(NC(=O)N2CC[C@@H](O)C2)cc(Nc2nccc(-c3ccc(OC)c(C#N)c3)n2)c1 [compound 378, (3R)-N-(3-{[4-(3-Cyano-4-methoxyphenyl)pyrimidin-2-yl]amino}-5-methoxyphenyl)-3-hydroxypyrrolidine-1-carboxamide]",5 to 50,10 to 100,–,–
